The series is described as follows: Intravenous delivery of CR845 to canines (composite IV data from five studies, reference for bioavailability). The settings on record: dog, in vivo, average dose 0.029±0.029 mg/kg, ten kilogram dogs, thirty-six canines. As to the method: Each capsule of prototype formulation 1 contained: 1.6 mg spray dried CR845 in 90% Miglyol 812, 10% sodium caprate. Each capsule of prototype formulation 2 contained: 1.6 mg crystallized CR845 in 90% Miglyol 812, 10% sodium caprate. Each capsule of prototype formulation 3 contained: 1.6 mg spray dried CR845 in 90% Miglyol 812, 10% capric acid. Each capsule of prototype formulation 4 contained: 1.6 mg spray dried CR845 in 70% Miglyol 812 in 30% capric acid. Bioavailability (% f) is expressed as a percent of CR845 observed (calculated from the area under the curve: AUC) as compared with the total CR845 AUC observed after intravenous delivery of the same dose. Composite IV data from five separate studies with thirty-six canines was averaged and used for bioavailability calculations. […] The observed avg.

The molecule `CC(C)C[C@@H](NC(=O)[C@@H](Cc1ccccc1)NC(=O)[C@H](N)Cc1ccccc1)C(=O)N[C@H](CCCCN)C(=O)N1CCC(N)(C(=O)O)CC1` [CR845, D-Phe-D-Phe-D-Leu-D-Lys-[ω(4-aminopiperidine-4-carboxylic acid)]-OH] registered a Cmax of 163 ± 39.2 ng/mL.

Usually Cmax stands for the peak of the concentration-time curve.

The values are drawn from US11033629B2, “Oral formulations of kappa opioid receptor agonists” (Cara Therapeutics, Inc., priority 2018, dated 2021).
